These results are taken from patent publication US10272120B2, “Synergistic composition comprising propolis and carnosic acid for use in the prevention and treatment of candidiasis” (priority 2015, dated 2019).

The test system of experiment [1] is parental strain SC5314. Kind of experiment: Inhibition kinetics / synergy assay, liquid medium and colony formation on plate. The experiment is classed as cell-based, Candida albicans. The settings on record: carnosic acid 50 μg/ml, propolis 3 200 μg/ml. As for the experimental part: FIG. 8. (A) Measurement of the kinetic growth in the parental strain SC5314. With regard to previous assays, the following modifications were used: (i) Reduction of the concentration of carnosic acid to 50 μg/ml, maintaining that of the propolis 3 (PP) at (200 μg/ml), in order to better monitor its effect on cell viability. […] (B) Assay of colony formation on plate.
Then, in strain SC5314, as it is a reference lineage, new experiments simultaneously measuring the kinetics of inhibition of cell viability at sub-inhibitory concentrations of the carnosic acid (up to 50 μg/ml) and propolis 3 (200 μg/ml) were conducted together with the synergy assays between the two. The tested aliquots come from a single initial exponential culture and, therefore, the physiological state of the cells is identical.

Experiment [2] concerns C. albicans yeast (blastoconides) CAI-4. Nature of the experiment: Cell morphology by optical microscopy (Nomarsky). The experiment is classed as cell-based, Candida albicans. As for the experimental part:
FIG. 4. Inspection of the cell morphology by optical microscopy, using the interference contrast of “Nomarsky” on C. albicans yeast (blastoconides) CAI-4, treated with: propolis 3 (200 μg/ml), carnosic acid (100 μg/ml) and the combination of both compounds.
As an essential tool in understanding the effectiveness of these compounds on C. albicans cell viability, detailed studies on the effects of their administration on the cell morphology of this opportunistic pathogen, visualized by optical microscopy, were performed (FIGS. 4, 5 and 6).

The subject of experiment [3] is parental strain SC5314. Nature of the experiment: MIC determination. It is filed as cell-based. Conditions: Candida albicans.
The next experiment deals with CAI-4. Kind of experiment: MIC determination. Conditions: Candida albicans; strain CAI-4. It is filed as cell-based.
The subject of the next experiment is C. albicans strain CAI-4. Nature of the experiment: Viability assay in liquid YPD medium and colony formation on solid YPD. The experiment is classed as cell-based, Candida albicans. The settings on record: concentrations of 200 y 2000 μg/ml. On the procedure:
FIG. 1. Viability assay on liquid YPD medium (A) and colony formation on solid YPD medium (B) on C. albicans strain CAI-4 to different concentrations of carnosic acid, propolis 2 and 3. It started from a preinocolum culture incubated overnight at 28° C.; the next day refreshed in YPD medium to a D.O600 nm=0.3. The culture was allowed to grow to D.O600 nm=0.6 at 37° C., moment at which the compounds, object of the study, are added for one hour at the same temperature. Additionally, a positive control of antifungal activity with amphotericin B was included under the same conditions.
Assays were carried out in liquid YPD medium (1% yeast extract, 2% peptone and 2% glucose) at 37° C. Initially the C. albicans strain CAI-4 was used, but as it presented growth problems during the calculation of the MIC, it was replaced by its parental (SC5314, wild type), widely used in the laboratory. The procedure consisted of applying different concentrations of carnosic acid and propolis (one hour, unless other times are indicated) on exponential cultures of C. albicans grown in YPD. The percentage of cell viability was determined by counting the number of viable cells in the solid YPD medium after incubation at 37° C. for 24-48 hours (FIG. 1).

Experiment [4] deals with C. albicans standard strain SC5314. Nature of the experiment: Viability assay in liquid medium and colony formation on solid YPD. The experiment is classed as cell-based, Candida albicans. The settings on record: various concentrations, exponential YPD liquid cultures. The text has this: FIG. 2. Viability assay in liquid medium of the C. albicans standard strain SC5314 to different concentrations of carnosic acid and propolis 1. As a positive control Amphotericin B was used. Due to the particular behaviour of the CAI-4 strain when carrying out MICs, it was decided to use the wild strain SC5314 ([…] parental), in order to validate the effect of the compounds of study on an international C. albicans reference strain. The assay followed the same procedure described in FIG. 1.
FIG. 3. Assay of macroscopic colony formation in solid YPD medium. The C. albicans standard strain SC5314 was used to the concentrations of carnosic acid and propolis 1 indicated. As a positive control Amphotericin B was used. For further details of methodology see FIG. 1.
Assays were carried out in liquid YPD medium (1% yeast extract, 2% peptone and 2% glucose) at 37° C. Initially the C. albicans strain CAI-4 was used, but as it presented growth problems during the calculation of the MIC, it was replaced by its parental (SC5314, wild type), widely used in the laboratory. […] The percentage of cell viability was determined by counting the number of viable cells in the solid YPD medium after incubation at 37° C. for 24-48 hours (FIG. 1). […]

Experiment [5] concerns C. albicans strain SC5314. Nature of the experiment: Yeast-hyphae dimorphic transition induced by human serum. The experiment is classed as cell-based, Candida albicans. Conditions: YPD plus human serum at 10%, 37° C., different concentrations. On the procedure: FIG. 9. Effect of the addition of carnosic acid on the percentage of yeast-hyphae dimorphic transition in C. albicans induced by human serum at 37° C. Exponential cultures of strain SC5314 were centrifuged and resuspended in fresh YPD medium preheated at 37° C. Identical samples were treated with carnosic acid at the indicated concentrations, using an untreated sample and a sample maintained at 28° C. as controls. The percentage of germ tubes emission (first stage of the formation of hyphae) was calculated by direct microscopic count with a hemocytometer.
FIG. 10. Micrographs illustrating the effect of carnosic acid on the dimorphism of C. albicans. In the control assay with the lowest concentration of carnosic acid, a high percentage of filamentation (grouped hyphae forming a mycelium) which decreased proportionally with increasing dose of the latter, was observed.
These assays are also complemented with the evaluation of the influence on the morphology (dimorphism) of C. albicans. In FIGS. 9 and 10, the effect of the carnosic acid on the dimorphic transition of the strain SC5314 of C. albicans was explored, given that the yeast-mycelium dimorphic transition is considered to be a factor of virulence in this opportunistic pathogen. To do this, an “overnight” culture was […] to a low optical density (0.1) and left to grow to 0.3 at 37° C. […]

A further experiment deals with SC5314 strain. Nature of the experiment: Cell morphology by optical microscopy. It is filed as cell-based, Candida albicans. The text has this:
FIG. 5. Optical micrographs (100×) where it can be seen how the treatment with increasing doses of carnosic acid caused visible alterations in the cellular morphology, resulting in cells with a more swollen and deformed aspect, with increased birefringence and the apparent loss of ability to transition dimorphically to mycelial structures (hyphae).
FIG. 6. Optical micrographs (40×) taken in order to provide better visual field with higher cell density, using the same cultures as in FIG. 5. The presence of swollen cells is very significant in the image, with a carnosic acid concentration of 100 μg/ml.

The structures appear in SMILES notation. Values after ≈ are worked out from the molar mass of the structure shown.

As to `CC(C)c1cc2c(c(O)c1O)[C@@]1(C(=O)O)CCCC(C)(C)[C@@H]1CC2` [carnosic acid], the “antifungal action considered individually” value with parental strain SC5314 [1] is on record as “strong antifungal action”. The “growth on plate (FIG. 8)” value in the experiment with parental strain SC5314 [1] (combination read at one hour) is given as “growth is visible”. Further, the “effect on cell morphology” value in experiment [2] (more significant after five hours of treatment) is recorded as “apparent cellular reduction of size (volume)”. The “cell morphology (FIG. 4 legend)” value in experiment [2] (propolis 3 200 μg/ml, carnosic acid 100 μg/ml, and the combination) is recorded as “significant reduction in cell size”. Moreover, the MIC in the experiment with parental strain SC5314 [3] and against CAI-4 was 250 µg/mL (≈ 752 µM) each time. Moreover, the antifungal effect result in the experiment on C. albicans strain CAI-4 is “strong antifungal effect”. In addition, in experiment [4], the cell viability entry is recorded as “significant decrease in cell viability”. In experiment [5], the “filamentation (yeast-mycelium dimorphic transition)” value is “reduced the filamentation of C. albicans in a dose-dependent way”. Further, the cell morphology entry in the experiment on SC5314 strain (100 μg/ml of carnosic acid, Nomarsky contrast) is “growing swelling”; in the experiment with SC5314 strain (increasing concentration of carnosic acid) it was “swelling and deformation of the yeast cells”. Further, the “cells seen in micrograph (40×)” value with SC5314 strain (500 μg/ml) was “small number of cells”.
